Measured values: ChEMBL document CHEMBL3351462, “RORγt Modulators Are Potentially Useful for the Treatment of the Immune-Mediated Inflammatory Diseases” (ACS Med Chem Lett, 2014)

Experiments:
[1] = molecular target: T1, Nuclear receptor ROR-gamma (Homo sapiens, UniProt P51449); assay: Binding affinity to human wild type RORgammat ligand binding domain expressed in Escherichia coli by thermofluor assay
T1 sequence (P51449 whole entry): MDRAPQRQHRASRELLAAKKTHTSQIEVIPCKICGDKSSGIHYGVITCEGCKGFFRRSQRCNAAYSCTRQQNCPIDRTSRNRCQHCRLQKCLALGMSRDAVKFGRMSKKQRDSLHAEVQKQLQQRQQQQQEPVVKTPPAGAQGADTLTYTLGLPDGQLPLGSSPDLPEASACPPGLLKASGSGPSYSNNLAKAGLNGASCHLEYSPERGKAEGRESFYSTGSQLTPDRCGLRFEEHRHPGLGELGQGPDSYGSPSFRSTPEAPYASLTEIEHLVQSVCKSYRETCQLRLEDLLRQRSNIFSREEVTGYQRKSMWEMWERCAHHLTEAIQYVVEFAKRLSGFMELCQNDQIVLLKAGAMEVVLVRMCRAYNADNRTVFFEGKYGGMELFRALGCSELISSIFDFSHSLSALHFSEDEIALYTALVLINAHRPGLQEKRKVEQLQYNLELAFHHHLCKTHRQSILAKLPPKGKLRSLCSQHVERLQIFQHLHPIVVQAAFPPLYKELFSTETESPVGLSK

[2] = molecular target: T2, Nuclear receptor ROR-gamma (Homo sapiens) (UniProt P51449); assay: Modulator activity at GAL4-tagged human RORgammat ligand binding domain expressed HEK293T cells by luciferase reporter gene assay relative to untreated control; type: cell-based; details: HEK-293T, concentration not given here
T2 sequence (whole entry): T1 sequence (P51449 whole entry)

T-cell = assay: Inhibition of IL17 production in human CD4-positive T cells incubated for 3 days; type: functional, cell-based; details: 72 h
[3] = molecular target: T1, Nuclear receptor ROR-gamma; assay: Modulator activity at GAL4-tagged human RORgammat ligand binding domain expressed HEK293T cells by luciferase reporter gene assay; type: cell-based, HEK-293T

Row | SMILES | Kd [1] | inhibition [2] | IC50 (T-cell) | IC50 [3]
1 | OC(c1ccncc1)(c1ccc2nc(Cl)c(Cc3ccc(Cl)cc3)c(Cl)c2c1)c1cncs1 (stereo not given) | 0.83 nM | 85% | 85 nM | 6.5 nM
2 | Cn1cncc1C(O)(c1ccc(Cl)cc1)c1ccc2nc(Cl)c(Cc3ccccc3)c(Cl)c2c1 (stereo not given) |  | 72% | 590 nM | 
3 | Cn1cncc1C(O)(c1ccc(C(F)(F)F)nc1)c1ccc2nc(C#N)c(Cc3ccc(-n4cccn4)cc3)c(C#N)c2c1 (stereo not given) |  | 99% | 25 nM | 
4 | COc1nc2ccc(C(O)(c3sc(C)nc3C)c3cnnn3C)cc2c(Cl)c1Cc1ccc(C(F)(F)F)cc1 (stereo not given) |  | 94% | 1.5 nM | 
